Structures can show the parent of a compound that is named as a salt. Where only a bound is given, the exact number is not on record here.

In this experiment the target is Aurora A (Homo sapiens (Human), UniProt O14965). In words: Aurora A inhibition assay (Z-Lyte). The experiment is classed as biochemical.
Chain of Aurora A (O14965 whole entry): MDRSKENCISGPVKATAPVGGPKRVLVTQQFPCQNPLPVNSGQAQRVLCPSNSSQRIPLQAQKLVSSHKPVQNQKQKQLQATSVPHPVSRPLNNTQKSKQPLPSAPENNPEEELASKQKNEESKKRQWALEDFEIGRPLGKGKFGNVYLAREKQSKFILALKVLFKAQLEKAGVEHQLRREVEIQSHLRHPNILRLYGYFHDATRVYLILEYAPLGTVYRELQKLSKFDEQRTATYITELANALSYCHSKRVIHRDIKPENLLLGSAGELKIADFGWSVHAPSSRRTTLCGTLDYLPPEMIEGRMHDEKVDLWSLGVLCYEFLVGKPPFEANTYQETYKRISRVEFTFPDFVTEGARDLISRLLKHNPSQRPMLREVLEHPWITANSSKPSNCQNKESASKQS
As to `O=C1Nc2ccccc2[C@@]12C[C@@H]2c1ccc2c(/C=C/c3cccnc3)n[nH]c2c1` [Example A30, (1S,2R)-2-(3-((E)-2-(pyridin-3-yl)vinyl)-1H-indazol-6-yl)spiro[cyclopropane-1,3′-indolin]-2′-one], the inhibition at 1 µM was more than 50%. `COc1ccc2c(c1)[C@]1(C[C@H]1c1ccc3c(-c4cccc(CN5CCOCC5)c4)n[nH]c3c1)C(=O)N2` (relative stereo) [Example A136, (1R*,2S*)-5′-methoxy-2-(3-(3-(morpholinomethyl)phenyl)-1H-indazol-6-yl)spiro[cyclopropane-1,3′-indolin]-2′-one 2,2,2-trifluoroacetate] came in with an inhibition at 1 µM of less than 50%. Turning to `O=C1Nc2ccccc2[C@]12C[C@H]2c1ccc2c(/C=C/c3ccc(CN4CCCCC4)cc3)n[nH]c2c1` [Example A58, (1R,2S)-(E)-2-(3-(4-(piperidin-1-ylmethyl)styryl)-1H-indazol-6-yl)spiro[cyclopropane-1,3′-indolin]-2′-one 2,2,2-trifluoroacetate], the inhibition at 1 µM is more than 50%.

Regarding `CN1CCC(Oc2ccc(/C=C/c3n[nH]c4cc([C@@H]5C[C@@]56C(=O)Nc5ccccc56)ccc34)cc2)CC1` [Example A78, (1R,2S)-(E)-2-(3-(4-(1-methylpiperidin-4-yloxy)styryl)-1H-indazol-6-yl)spiro[cyclopropane-1,3′-indolin]-2′-one 2,2,2-trifluoroacetate salt], the inhibition at 1 µM is more than 50%. `COc1ccc2c(c1)[C@]1(C[C@H]1c1ccc3c(/C=C/c4ccc5c(c4)CNCC5)n[nH]c3c1)C(=O)N2` [Example A66, (1R,2S)-5′-methoxy-2-(3-((E)-2-(1,2,3,4-tetrahydroisoquinolin-7-yl)vinyl)-1H-indazol-6-yl)spiro[cyclopropane-1,3′-indolin]-2′-one 2,2,2-trifluoroacetate salt] returned an inhibition at 1 µM of more than 50%. For `CC(C)CCN1C(=O)[C@@]2(C[C@H]2c2ccc3c(/C=C/c4ccc(CN(C)C)cc4)n[nH]c3c2)c2ccccc21` (relative stereo) [Example A176, (1R*,2S*)-(E)-2-(3-(4-((dimethylamino)methyl)styryl)-1H-indazol-6-yl)-1′-isopentylspiro[cyclopropane-1,3′-indolin]-2′-one], the inhibition at 1 µM is more than 50%. In the case of `CN(C)Cc1ccc(/C=C/c2n[nH]c3cc([C@@H]4C[C@@]45C(=O)N(C)c4ccccc45)ccc23)cc1` [Example A109, (1R,2S)-(E)-2-(3-(4-((dimethylamino)methyl)styryl)-1H-indazol-6-yl)-1′-methylspiro[cyclopropane-1,3′-indolin]-2′-one 2,2,2-trifluoroacetate], the inhibition at 1 µM was more than 50%. `COc1ccc2c(c1)[C@]1(C[C@H]1c1ccc3c(-c4ccc(N(C)CCN(C)C)cc4)n[nH]c3c1)C(=O)N2` [Example A129, (1R,2S)-2-(3-(4-((2-(dimethylamino)ethyl)(methyl)amino)phenyl)-1H-indazol-6-yl)-5′-methoxyspiro[cyclopropane-1,3′-indolin]-2′-one 2,2,2-trifluoroacetate] registered an inhibition at 1 µM of less than 50%. In turn, `Cc1ccc2c(c1)[C@]1(C[C@H]1c1ccc3c(/C=C/c4ccc(CN5CCOCC5)cc4)n[nH]c3c1)C(=O)N2` [Example A195, (1R,2S)-(E)-5′-methyl-2-(3-(4-(morpholinomethyl)styryl)-1H-indazol-6-yl)spiro[cyclopropane-1,3′-indolin]-2′-one 2,2,2-trifluoroacetate] had an inhibition at 1 µM of more than 50%. Take `CCc1ccc2c(c1)[C@]1(C[C@H]1c1ccc3c(-c4cccc(CN5CCOCC5)c4)n[nH]c3c1)C(=O)N2` (relative stereo) [Example A141, (1R*,2S*)-5′-ethyl-2-(3-(3-(morpholinomethyl)phenyl)-1H-indazol-6-yl)spiro[cyclopropane-1,3′-indolin]-2′-one 2,2,2-trifluoroacetate]: the inhibition at 1 µM was less than 50%.

Values taken from US10358436B2, “Kinase inhibitors and method of treating cancer” (University Health Network, priority 2010, dated 2019).
